{
  "source": "patent US20150045410A1",
  "about": "“METHOD OF REGULATING CFTR EXPRESSION AND PROCESSING” (University of Iowa Research Foundation, priority 2012, published 2015)",
  "target": "T1, CFTR-ΔF508 (Homo sapiens, UniProt P13569, DEL508-508)",
  "T1 construct": "expressed in transfected cells",
  "T1 sequence (P13569 with tags, fused parts or gaps DEL508-508)": "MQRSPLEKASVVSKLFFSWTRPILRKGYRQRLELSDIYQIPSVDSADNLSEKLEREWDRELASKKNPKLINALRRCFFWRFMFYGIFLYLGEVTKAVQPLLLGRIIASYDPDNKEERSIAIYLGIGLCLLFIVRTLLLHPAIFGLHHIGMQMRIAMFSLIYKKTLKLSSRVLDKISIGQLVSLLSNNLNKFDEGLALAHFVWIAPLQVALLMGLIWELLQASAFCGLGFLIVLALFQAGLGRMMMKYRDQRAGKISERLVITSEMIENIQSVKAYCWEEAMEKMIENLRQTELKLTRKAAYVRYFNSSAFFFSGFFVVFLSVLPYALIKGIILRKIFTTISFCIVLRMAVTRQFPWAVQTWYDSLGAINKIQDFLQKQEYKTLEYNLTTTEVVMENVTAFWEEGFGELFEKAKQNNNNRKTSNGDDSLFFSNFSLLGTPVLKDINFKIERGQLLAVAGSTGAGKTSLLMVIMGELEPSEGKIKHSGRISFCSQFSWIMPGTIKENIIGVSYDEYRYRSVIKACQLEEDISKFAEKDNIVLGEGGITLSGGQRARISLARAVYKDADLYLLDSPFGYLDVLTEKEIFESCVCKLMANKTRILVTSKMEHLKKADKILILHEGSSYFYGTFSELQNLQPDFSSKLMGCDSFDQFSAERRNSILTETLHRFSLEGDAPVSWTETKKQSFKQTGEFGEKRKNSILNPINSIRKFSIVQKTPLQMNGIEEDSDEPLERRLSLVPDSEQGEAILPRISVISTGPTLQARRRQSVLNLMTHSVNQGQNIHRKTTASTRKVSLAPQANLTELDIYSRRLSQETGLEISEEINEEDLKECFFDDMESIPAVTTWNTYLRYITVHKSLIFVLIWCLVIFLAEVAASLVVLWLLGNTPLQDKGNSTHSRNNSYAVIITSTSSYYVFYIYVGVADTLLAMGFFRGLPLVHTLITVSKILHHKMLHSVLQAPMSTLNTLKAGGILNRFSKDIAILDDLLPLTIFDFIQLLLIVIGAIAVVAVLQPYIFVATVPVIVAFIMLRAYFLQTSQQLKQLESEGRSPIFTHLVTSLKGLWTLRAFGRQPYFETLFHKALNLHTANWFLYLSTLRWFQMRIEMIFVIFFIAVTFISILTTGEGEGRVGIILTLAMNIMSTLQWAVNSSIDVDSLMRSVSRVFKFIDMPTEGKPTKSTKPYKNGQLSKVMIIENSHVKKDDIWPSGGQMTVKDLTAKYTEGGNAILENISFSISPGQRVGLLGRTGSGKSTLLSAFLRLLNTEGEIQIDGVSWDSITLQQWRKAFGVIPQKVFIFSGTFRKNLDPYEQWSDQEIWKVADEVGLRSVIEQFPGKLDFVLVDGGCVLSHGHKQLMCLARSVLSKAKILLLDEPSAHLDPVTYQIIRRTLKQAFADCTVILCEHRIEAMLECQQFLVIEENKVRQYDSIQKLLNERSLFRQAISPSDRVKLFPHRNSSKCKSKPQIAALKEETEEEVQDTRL",
  "test": "Cell surface ELISA (anti-HA) in HeLa cells stably expressing HA-tagged CFTR-ΔF508",
  "format": "cell-based",
  "conditions": "HeLa-ΔF508-CFTR-HA cells treated daily with drugs, 72 hr post-treatment, vs DMSO (FIG. 28, 29)",
  "data": [
    {"smiles": "CN(C)C(=O)Oc1cccc([N+](C)(C)C)c1", "note": "[Neostigmine, 3-{[(dimethylamino)carbonyl]oxy}-N,N,N-trimethylbenzenaminium]", "values": [
      {"measurement": "surface display of ΔF508-CFTR (live cell-surface ELISA)", "value": "increased"}
    ]},
    {"smiles": "CN(C)C(=O)Oc1ccc[n+](C)c1", "note": "[Pyridostigmine]", "values": [
      {"measurement": "surface display of ΔF508-CFTR (live cell-surface ELISA)", "value": "rescues ΔF508-CFTR trafficking"},
      {"measurement": "surface display of ΔF508-CFTR (live cell-surface ELISA)", "setting": "listed as pyridostigmine", "value": "increased"}
    ]}
  ]
}
